Values belong to the compound of their own block, whether it stands above or below them. Calls of active or inactive are those of the source.
Columns and labels:
[1] = target: Neuropeptide Y receptor type 2 (Homo sapiens, UniProt P49146); assay: Fluorescence-based counterscreen for agonists of NPY-Y1: cell-based high-throughput dose response assay for agonists of NPY-Y2.; type: functional
[2] = test system: HEK293; assay: Fluorescence-based counterscreen for potentiators or agonists of NPY-Y1: cell-based high-throughput dose response assay for inhibitors of cyclic nucleotide gated ion channel (CNGC) activity. In this assay, the parental HEK293 cell line transfected with a cyclic-nucleotide gated ion channel (CNGC)-based cAMP sensor is used to measure inhibition of isoproterenol-induced CNGC …; type: functional; conditions: Homo sapiens
[3] = target: Neuropeptide Y receptor type 1 (Homo sapiens, UniProt P25929); assay: Fluorescence-based dose response cell-based high-throughput screening assay for agonists of NPY-Y1. [Related pubchem assays: 1697 (Screening assay (NPY-Y1 agonists).), 1359 (Screening assay (NPY-Y2 potentiators or agonists).), 1304 (Screening assay (NPY-Y1 potentiators or agonists).), 1704 (Screening assay (CNGC inhibitors).), 1791 (Summary AID.)]; type: functional
[4] = target: T1, Leucine aminopeptidase (Plasmodium falciparum 3D7, UniProt Q8IL11); assay: P. falciparum M17LAP inhibitors, primary screen, biochemical, fluorogenic H-Leu-NHMec substrate, 1536-well (AID 1619); type: functional
T1 sequence (Q8IL11 whole entry): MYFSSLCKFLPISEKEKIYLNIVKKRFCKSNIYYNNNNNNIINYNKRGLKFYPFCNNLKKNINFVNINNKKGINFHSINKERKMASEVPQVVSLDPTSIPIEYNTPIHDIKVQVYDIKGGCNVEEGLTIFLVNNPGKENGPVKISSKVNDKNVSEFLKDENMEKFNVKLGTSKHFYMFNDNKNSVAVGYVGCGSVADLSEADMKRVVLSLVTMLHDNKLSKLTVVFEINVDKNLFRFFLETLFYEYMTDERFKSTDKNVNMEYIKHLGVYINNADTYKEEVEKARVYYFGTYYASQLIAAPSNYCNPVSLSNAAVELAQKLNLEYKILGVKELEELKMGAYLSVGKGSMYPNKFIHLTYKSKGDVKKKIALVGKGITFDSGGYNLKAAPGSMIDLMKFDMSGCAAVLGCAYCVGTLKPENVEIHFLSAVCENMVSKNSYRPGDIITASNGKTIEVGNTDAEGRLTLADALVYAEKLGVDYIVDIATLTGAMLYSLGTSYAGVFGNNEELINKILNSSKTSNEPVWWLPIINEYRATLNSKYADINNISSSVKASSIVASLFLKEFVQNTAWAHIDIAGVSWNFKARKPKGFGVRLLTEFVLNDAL

[5] = target: Aspartyl aminopeptidase (Plasmodium falciparum 3D7, UniProt Q8I2J3)
[6] = target: Procathepsin L (Homo sapiens, UniProt P07711)
[7] = target: Protein Rev (Human immunodeficiency virus type 1 group M subtype B (isolate HXB2)(HIV-1), UniProt P04618); assay: blockers of HIV Rev/RRE RNA complex – biochemical, fluorescence polarization, HIV-1, dose response (AID 434976); parameters: species or system Human immunodeficiency virus 1
[8] = target: Female germline-specific tumor suppressor gld-1 (Caenorhabditis elegans, UniProt Q17339); assay: blockers of GLD-1/TGE RNA complex formation – biochemical, fluorescence polarization, C. elegans, dose response (AID 2802);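 also: fluorescence polarization of labeled TGE RNA bound by purified gld-1 protein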
[9] = target: T2, Polyadenylate-binding protein 1 (Homo sapiens, UniProt P11940); assay: MLLE binding blockers, Cy5 peptide tracer – biochemical, fluorescence polarization, Cy5-PAM2 peptide, secondary, miRNA deadenylation inhibitor project, dose response (AID 602260); type: functional; conditions: read-out: IC50_Mean
[10] = target: T2, Polyadenylate-binding protein 1; assay: MLLE domain peptide-binding blockers, IC50 – biochemical, fluorescence polarization, FITC-PAM2 peptide, dose response (AID 602259); type: functional; conditions: read-out: IC50_Mean
[11] = target: Bcl-2-like protein 10 (Homo sapiens, UniProt Q9HD36); assay: Bcl-B/TR3 peptide binding disruption – biochemical, fluorescence polarization, FITC-TR3 peptide, selectivity assay for Bfl-1 inhibitor project, primary screen (AID 748);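 also: fluorescence polarization from a fluorescein-labelled TR3 peptide binding purified Bcl-B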
Chain of Bcl-2-like protein 10 (Q9HD36 whole entry): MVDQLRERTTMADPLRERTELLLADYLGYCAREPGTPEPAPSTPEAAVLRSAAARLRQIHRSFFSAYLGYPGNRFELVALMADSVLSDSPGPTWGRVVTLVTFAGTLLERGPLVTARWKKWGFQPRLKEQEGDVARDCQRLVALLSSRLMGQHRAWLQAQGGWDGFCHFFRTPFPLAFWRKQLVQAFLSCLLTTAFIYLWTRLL

T2 sequence (P11940 whole entry, the tested form may be a part): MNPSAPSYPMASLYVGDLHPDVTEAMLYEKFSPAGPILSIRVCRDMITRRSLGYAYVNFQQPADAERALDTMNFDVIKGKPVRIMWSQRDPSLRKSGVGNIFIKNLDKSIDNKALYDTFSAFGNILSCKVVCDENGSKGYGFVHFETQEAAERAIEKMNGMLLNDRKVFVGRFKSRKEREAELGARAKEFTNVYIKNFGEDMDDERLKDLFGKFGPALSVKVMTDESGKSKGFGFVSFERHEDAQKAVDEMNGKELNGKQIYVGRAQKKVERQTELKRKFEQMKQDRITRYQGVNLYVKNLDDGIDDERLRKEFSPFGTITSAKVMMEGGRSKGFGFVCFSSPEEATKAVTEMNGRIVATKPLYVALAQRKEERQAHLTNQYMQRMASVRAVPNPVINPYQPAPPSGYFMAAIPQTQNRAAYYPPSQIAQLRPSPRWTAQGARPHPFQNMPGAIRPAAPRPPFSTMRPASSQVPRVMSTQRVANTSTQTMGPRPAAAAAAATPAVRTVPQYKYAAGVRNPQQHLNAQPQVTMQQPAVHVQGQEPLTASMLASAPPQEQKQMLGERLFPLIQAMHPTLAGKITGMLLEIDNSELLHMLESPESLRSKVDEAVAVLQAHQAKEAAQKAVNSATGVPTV
Chain of Procathepsin L (P07711 whole entry): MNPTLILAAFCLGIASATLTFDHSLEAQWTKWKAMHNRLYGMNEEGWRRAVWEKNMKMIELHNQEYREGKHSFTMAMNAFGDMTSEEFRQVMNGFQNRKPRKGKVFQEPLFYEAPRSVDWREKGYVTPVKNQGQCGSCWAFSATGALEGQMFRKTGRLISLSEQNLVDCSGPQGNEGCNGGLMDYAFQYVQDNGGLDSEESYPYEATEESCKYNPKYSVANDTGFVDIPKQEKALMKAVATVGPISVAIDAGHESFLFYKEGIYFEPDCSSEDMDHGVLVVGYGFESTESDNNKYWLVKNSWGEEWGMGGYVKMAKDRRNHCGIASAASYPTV
Chain of Neuropeptide Y receptor type 2 (P49146 whole entry): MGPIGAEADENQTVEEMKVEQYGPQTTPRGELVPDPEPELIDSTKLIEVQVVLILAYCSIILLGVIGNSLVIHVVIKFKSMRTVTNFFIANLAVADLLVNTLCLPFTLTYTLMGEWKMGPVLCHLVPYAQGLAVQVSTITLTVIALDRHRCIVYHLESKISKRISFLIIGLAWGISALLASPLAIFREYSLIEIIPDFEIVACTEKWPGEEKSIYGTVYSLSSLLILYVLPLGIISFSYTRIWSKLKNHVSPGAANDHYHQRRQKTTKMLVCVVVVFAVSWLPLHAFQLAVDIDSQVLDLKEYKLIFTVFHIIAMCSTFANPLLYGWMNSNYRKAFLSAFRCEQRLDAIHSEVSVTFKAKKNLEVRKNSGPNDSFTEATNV
Chain of Aspartyl aminopeptidase (Q8I2J3 whole entry): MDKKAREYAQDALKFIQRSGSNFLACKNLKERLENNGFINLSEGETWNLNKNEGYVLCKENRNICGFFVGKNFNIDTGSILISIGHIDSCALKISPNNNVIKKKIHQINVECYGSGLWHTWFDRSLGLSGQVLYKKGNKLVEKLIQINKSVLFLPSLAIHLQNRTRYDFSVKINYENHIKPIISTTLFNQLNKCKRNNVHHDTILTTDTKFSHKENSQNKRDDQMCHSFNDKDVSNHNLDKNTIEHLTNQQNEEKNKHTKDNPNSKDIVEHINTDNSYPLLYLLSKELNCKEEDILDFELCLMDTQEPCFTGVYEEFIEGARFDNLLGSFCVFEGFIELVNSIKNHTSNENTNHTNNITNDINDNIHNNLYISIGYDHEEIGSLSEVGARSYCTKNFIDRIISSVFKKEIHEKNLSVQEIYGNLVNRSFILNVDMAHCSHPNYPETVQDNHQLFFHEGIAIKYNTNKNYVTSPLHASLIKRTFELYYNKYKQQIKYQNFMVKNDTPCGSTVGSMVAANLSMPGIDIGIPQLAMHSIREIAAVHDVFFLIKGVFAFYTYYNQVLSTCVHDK
Chain of Neuropeptide Y receptor type 1 (P25929 whole entry): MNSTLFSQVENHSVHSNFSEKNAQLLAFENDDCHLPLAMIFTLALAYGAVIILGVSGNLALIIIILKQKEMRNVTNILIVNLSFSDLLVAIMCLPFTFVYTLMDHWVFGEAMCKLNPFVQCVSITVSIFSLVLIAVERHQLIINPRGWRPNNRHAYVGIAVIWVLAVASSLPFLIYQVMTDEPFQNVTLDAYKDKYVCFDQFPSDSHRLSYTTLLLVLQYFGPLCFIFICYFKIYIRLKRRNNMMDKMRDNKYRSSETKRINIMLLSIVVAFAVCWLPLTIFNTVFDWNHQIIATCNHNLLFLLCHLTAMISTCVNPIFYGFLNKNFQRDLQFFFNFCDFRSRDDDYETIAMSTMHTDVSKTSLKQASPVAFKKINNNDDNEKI
Chain of Protein Rev (P04618 whole entry): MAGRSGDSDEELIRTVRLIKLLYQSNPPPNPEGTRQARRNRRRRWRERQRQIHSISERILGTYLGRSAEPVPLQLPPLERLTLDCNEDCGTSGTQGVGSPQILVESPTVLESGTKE
Chain of Female germline-specific tumor suppressor gld-1 (Q17339 whole entry): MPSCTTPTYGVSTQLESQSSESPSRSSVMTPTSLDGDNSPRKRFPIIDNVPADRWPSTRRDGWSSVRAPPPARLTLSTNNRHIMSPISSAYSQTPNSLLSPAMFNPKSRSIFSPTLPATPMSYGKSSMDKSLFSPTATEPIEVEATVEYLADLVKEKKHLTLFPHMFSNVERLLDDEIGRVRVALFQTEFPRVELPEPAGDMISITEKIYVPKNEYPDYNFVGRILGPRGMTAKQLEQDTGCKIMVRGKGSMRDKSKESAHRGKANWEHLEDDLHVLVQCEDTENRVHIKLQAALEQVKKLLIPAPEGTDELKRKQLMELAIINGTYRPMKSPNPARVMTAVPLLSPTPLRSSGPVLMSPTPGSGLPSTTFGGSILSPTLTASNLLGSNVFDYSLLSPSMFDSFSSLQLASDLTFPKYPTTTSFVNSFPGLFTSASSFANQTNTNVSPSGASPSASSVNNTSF

Compound: CCC(C)C1C(C#N)=C(N)Oc2[nH]nc(-c3ccccc3)c21 (stereo unspecified)
EC50 [1]: > 35.4 µM (not active)
IC50 [2]: 25 µM (not active)
EC50 [3]: > 35.4 µM (not active)

IC50 [4]: 19.9 µM (active)
IC50 [5]: 0.975 µM (active)
IC50 [6]: > 59.6 µM (not active)
Compound: O=C(CSc1nc[nH]n1)Nc1ccc([N+](=O)[O-])cc1Br

Compound: Nc1nnnn1/N=C/c1cc(Cl)ccc1O
IC50 [7]: > 75.3 µM (not active)
IC50 [8]: 6.2 µM (active)
IC50 [9]: 35.1 µM (inactive)
IC50 [10]: 38.8 µM (inactive)

IC50 [11]: 70.4 µM (inactive)
Compound: O=C(C[n+]1ccc(C(=O)NN=Cc2ccc(O)cc2)cc1)c1ccccc1

— ChEMBL document CHEMBL1201862, “PubChem BioAssay data set” (2004)
